Results as given in patent publication US20060095979A1, “Transgenic mice containing CLCN4 chloride ion channel gene disruptions” (priority 2001, published 2006).

System: mouse
Test: Metrazol Test (tail vein infusion, seizure susceptibility)
Format: in vivo
Settings: for Metrazol Dose Required for First Twitch: Dose at First Twitch: about 5 mg/ml infused through tail vein at about 0.375 ml/min
Experimental: A metrazol administration test can be used to screen animals for varying susceptibilities to seizures or similar events. For example, a 5 mg/ml solution of metrazol can be infused through the tail vein of a mouse at a rate of, e.g., approximately 0.375 ml/min. The infusion will cause all mice to experience seizures, followed by death. Those mice that enter the seizure stage the soonest are believed to be more prone to seizures.
To screen for phenotypes involving changes in seizure susceptibility, the Metrazol Test was be used. About 5 mg/ml of Metrazol was infused through the tail vein of the mouse at a constant rate of about 0.375 ml/min. The infusion caused all mice to experience seizures. Those mice who entered the seizure stage the quickest were thought to be more prone to seizures in general.
The Metrazol test can also be used to screen for phenotypes related to epilepsy. Seven to ten adult wild-type and homozygote males were used. A fresh solution of about 5 mg/ml pentylenetetrazole in approximately 0.9% NaCl was prepared prior to testing. Mice were weighed and loosely held in a restrainer. After exposure to a heat lamp to dilate the tail vein, mice were continuously infused with the pentylenetetrazole solution using a syringe pump set at a constant flow rate. The following stages were recorded: first twitch (sometimes accompanied by a squeak), beginning of the tonic/clonic seizure, tonic extension and survival time. The dose required for each phase was determined and the latency to each phase was determined between genotypes. Alterations in any stage may indicate an overall imbalance in excitatory or inhibitory neurotransmitter levels.

Compound: C1CCc2nnnn2CC1 [Metrazol, pentylenetetrazole]
- dose of metrazol to induce the first twitch response, homozygous mutant (−/−) compared to wild-type (+/+) control mice (age- and gender-matched mice): higher dose
- Metrazol Dose Required for First Twitch: Dose at First Twitch (homozygous mutant (−/−) CLCN4 male mice): 34.14 mg/kg
- Metrazol Dose Required for First Twitch: Dose at First Twitch (wild-type (+/+) male mice): 28.06 mg/kg
